In US4183939A, “Glaucine analgesic method” (priority 1978, dated 1980):
Counter-ions that a name gives are not always drawn. Like-named read-outs stand apart in the source and are kept apart here.

What was measured:
mice [1] = experiment: phenyl-p-quinone mouse writhing test (oral analgesic activity); assay type: in vivo; conditions: orally 30 minutes prior to phenyl-p-quinone challenge; for ED50: Mus musculus, po, 0.5 h
Protocol: Test compounds were evaluated for oral analgesic activity in the phenyl-p-quinone mouse writhing test of Hendershot & Forsaith, J. Pharmacol. Exptl. Therap. 125(3), 237 (1959). Test compounds were administered orally 30 minutes prior to the phenyl-p-quinone challenge. […]

mice [2] = assay type: in vivo; conditions: for stimulation and Straub tail: increasing doses on two consecutive days, d,l-glaucine phosphate highest dose 100 mg/kg; for jumping behavior after naloxone (in words): naloxone 100 mg/kg intraperitoneal
Protocol: Physical dependency liability was evaluated in mice by the procedure of Saelens, et al., Aoch. Int. Pharmacodynam, 190:213-218, 1971. In this procedure, mice are administered increasing doses of a test compound at intervals on two consectuive days. The last dosage on the second day is followed by intraperitoneal injection of the morphine antagonist, naloxone, at a dosage of 100 mg/kg, and the mice are observed for characteristic jumping behavior indicative of opiate withdrawals or morphine antaganism.

monkeys = experiment: abuse potential: self-administration in codeine-habituated monkeys; assay type: in vivo; conditions: codeine 100 micrograms/kg per injection; d,l-glaucine phosphate substituted at 50, 100, 200 and 400 micrograms/kg per injection
Description: The abuse potential of d,l-glaucine phosphate was studied in two monkeys in a procedure similar to that described by Deneau, et al., Psychopharmacologia 16(1):30-48, 1969.
In this procedure, the test monkeys are restrained and catheter inserted into the external jugular vein for injection of test substances in response to pressing a bar lever by the monkey. The test monkeys are first habituated to self-administer codeine at a rate of 100 micrograms/kilograms per injection. The self-administration rate of the two monkeys so trained and habituated was about 100 to 150 lever pushes per two hour session at the 100 microgram codeine level. […]

[3] = acute lethality (LD50) in mice; assay type: in vivo; conditions: mouse, in vivo, mortality within 72 hours
Protocol: (§1) In other operations, various dosages of d,l-glaucine phosphate were administered to groups of mice by the oral route or by intraperitoneal injection, and the dosage which is lethal to 50 percent of the mice (LD50) was calculated from the mortality observations within 72 hours after administration.

[4] = assay type: in vivo; conditions: intraperitoneal injection 45-60 minutes before testing
[5] = plasma concentration levels of glaucine in guinea pigs; assay type: in vivo; conditions: for concentration at 0.25 h: 15 minutes after dosing, l-isomer orally 5 mg/kg, read-out: plasma glaucine level after 15 minutes
Protocol: Test compounds were administered to guinea pigs, and blood samples were collected at 15 minute intervals and analyzed to determine plasma concentration levels of glaucine.
Similar results were obtained with d- and l-glaucine phosphate, with l-glaucine phosphate producing from 3 to 6 or more times the levels obtained with the d-isomer throughout a 120 minute period.

mice [6] = experiment: protecting mice against writhing induced by intraperitoneal injection of aqueous 0.1 percent hydrochloric acid; assay type: in vivo; conditions: subcutaneous, 15 minutes before HCl; for ED50: Mus musculus, sc
Protocol: l-Glaucine hydrobromide and d-glaucine hydrobromide were evaluated for analgesic activity in protecting mice against characteristic writhing induced by intraperitoneal injection of aqueous 0.1 percent hydrochloric acid, injected 15 minutes after subcutaneous injection of a test compound.

mice [7] = experiment: animal or person; assay type: in vivo; conditions: Mus musculus, sc, 0.5 h; first evaluation; subcutaneous injection 30 minutes before testing; read-out: ED50 (hot plate)
Protocol: The test compounds were administered by subcutaneous injection 30 minutes before testing.

[8] = in vivo; cited from earlier work
mice [9] = conditions: cited from earlier work
[10] = in vivo; cited from earlier work; remark: listed apart in the source
mice [11] = experiment: acute lethality (LD50) in mice; assay type: in vivo; conditions: mortality within 72 hours
Protocol: as §1

[12] = in vivo; cited from earlier work; remark: listed apart in the source
[13] = naloxone 100 mg/kg intraperitoneal after last dose on second day

With COc1cc2c(cc1OC)-c1c(OC)c(OC)cc3c1C(C2)N(C)CC3 (racemic) [d,l-glaucine phosphate] the ED50 (mice [1]) was 23 mg/kg, the “stimulation and Straub tail” value (mice [2]) was “no Straub tail at the highest dose” and the “jumping behavior after naloxone (in words)” value (mice [2]; listed as d,l-Glaucine phosphate 1:11/2 salt) was “no jumping behavior in any of the eight mice tested”. The self-administration response rate (monkeys) was 10-20 responses/two hour session, the LD50 at 72 h ([3]; ip, intraperitoneal, read-out: LD50, intraperitoneal) was 178 mg/kg and the LD50 at 72 h ([3]; po, read-out: LD50, oral) was no less than 681 mg/kg.
For COc1ccc2c3c1O[C@H]1[C@@H](O)C=C[C@H]4[C@@H](C2)N(C)CC[C@@]341 [codeine], the self-administration response rate (monkeys) was 100-150 responses/two hour session.
For COc1cc2c(cc1OC)-c1c(OC)c(OC)cc3c1[C@@H](C2)N(C)CC3 [l-glaucine hydrobromide], the “analgesic activity (tail pinch)” value [4] was “No analgesic activity was observed”, the ED50 (mice [1]) was 17 mg/kg and the concentration at 0.25 h ([5]; guinea pig, plasma, po) was roughly 40 ng/mL. The concentration at 1.5 h ([5]; guinea pig, plasma, po, orally 5 mg/kg, end of 90 minutes test period, read-out: plasma glaucine level at end of test period) was roughly 200 ng/mL, the Cmax ([5]; guinea pig, plasma, po, orally 5 mg/kg, one hour after administration, read-out: peak plasma glaucine level) was greater than 350 ng/mL and the “time of peak plasma level” value ([5]; orally 5 mg/kg) was “one”. For the same compound, the ED50 (mice [6]) was 5.99 mg/kg, the “95 percent confidence limits of ED50 (HCl writhing)” value (mice [6]) was 2.43 to 14.8 mg/kg and the ED50 (mice [7]) was 12.7 mg/kg.
In the case of COc1cc2c(cc1OC)-c1c(OC)c(OC)cc3c1[C@H](C2)N(C)CC3 [d-glaucine], the “doses with analgesic activity” value [8] is given as 50 to 100 mg/kg, the “hexenal and chloral hydrate sleep time” value (mice [9]) is given as “prolongs hexenal and chloral hydrate sleep time” and the adrenolytic activity [10] is given as “adrenolytic activity”.
In the case of CCC(=O)O[C@](Cc1ccccc1)(c1ccccc1)[C@H](C)CN(C)C [d-Propoxyphene·HCl], the “ED50 (tail pinch)” value [4] is reported as 16.7 mg/kg.
With COc1cc2c(cc1OC)-c1c(OC)c(OC)cc3c1C(C2)N(C)CC3 (racemic) [d,l-glaucine lactate] the “oral ED50 (phenyl-p-quinone writhing)” value (mice [1]; 30 min) was 25.5 mg/kg, the “jumping behavior after naloxone (in words)” value (mice [2]) was “no jumping in any of the ten mice tested” and the “LD50, intraperitoneal” value (mice [11]; intraperitoneal) was 178 mg/kg. For the same compound, the “LD50, oral” value (mice [11]; oral, 4320 min) was 383 mg/kg.
In the case of COc1ccc2c3c1O[C@H]1[C@@H](O)C=C[C@H]4[C@@H](C2)N(C)CC[C@@]341 [codeine phosphate], the “ED50 (tail pinch)” value [4] is reported as 6.8 mg/kg, the ED50 (mice [1]) is reported as 21.1 mg/kg and the “stimulation and Straub tail” value (mice [2]) is reported as “produced Straub tail and stimulation”. The “mice jumping after naloxone” value (mice [2]; [13]) was 2 of 6 and the “total jumps after naloxone” value (mice [2]; [13]) was 23 jumps total.
In the case of COc1cc2c(cc1OC)-c1c(OC)c(OC)cc3c1[C@H](C2)N(C)CC3 [d-glaucine hydrobromide], the “analgesic activity (tail pinch)” value [4] is listed as “No analgesic activity was observed”, the ED50 (mice [1]) is listed as 34 mg/kg and the antitussive activity [12] is listed as “antitussive activity”. For the same compound, the “plasma level after initial peak, throughout the 90 minute period” value ([5]; after initial peak at 15 minutes, to 90 minutes) was 20-40 nanograms/ml, the concentration at 0.25 h ([5]; guinea pig, plasma, po) was roughly 50 ng/mL and the Tmax ([5]; guinea pig, plasma, read-out: time of initial peak plasma level (converted)) was 15 min. For the same compound, the ED50 (mice [6]) was 12.9 mg/kg, the “95 percent confidence limits of ED50 (HCl writhing)” value (mice [6]) was 5.24 to 31.8 mg/kg and the ED50 (mice [7]) was 23.8 mg/kg.
